Assay results as given in patent US20090048278A1, “Novel Quinazoline-2,4-Diamine Derivatives and Their Use as Modulators of Small-Conductance Calcium-Activated Potassium Channels” (priority 2005, published 2009).
Counter-ions that a name gives are not always drawn.

molecular target: T1, hSK3 channels (Homo sapiens, UniProt Q9UGI6); assay: Whole-cell patch-clamp recording of SK3 current in HEK293 cells expressing hSK3 channels; assay type: cell-based; conditions: current at −75 mV, free Ca2+ 0.3-0.4 μM, room temperature, read-out: Ki value (concentration required for decreasing the baseline current to 50% of the initial current)
T1 construct: expressed in transfected cells; host or cells: HEK293
Method: The ionic current through small-conductance Ca^2+-activated K^+ channels (SK channels, subtype 3) was recorded using the whole-cell configuration of the patch-clamp technique.
HEK293 tissue culture cells expressing hSK3 channels were grown in DMEM (Dulbecco's Modified Eagle Medium) supplemented with 10% FCS (foetal calf serum) at 37° C. in 5% CO2. At 60-80% confluency, cells were harvested by trypsin treatment and seeded on cover slips.
Cells plated on coverslips are placed in a 15 μl perfusion chamber (flowrate ˜1 ml/min) mounted on an inverted microscope placed on a vibration-free table in a grounded Faraday cage. The experiments were performed at room temperature (20-22° C.). […] Data were stored directly on the hard-disk and analysed by IGOR software (Wavemetrics, Lake Oswega, Oreg., USA).
The whole-cell configuration of the patch-clamp technique was applied. […] Cell capacitance was electronically compensated and the resistance between the pipette and the cell interior (the series resistance, R^5) was measured and compensated for. […]
The intracellular (pipette) solution contained: 154 mM KCl, 10 mM HEPES, 10 mM EGTA. Concentrations of CaCl2 and MgCl2 needed to obtain the desired free concentrations of Ca^2+ (0.3-0.4 μM, Mg^2+ always 1 mM) were calculated by EqCal software (Cambridge, UK) and added. […]

SMILES | IC50 [nM]
N#CCCN(Cc1ccccc1)c1nc(NCc2ccc(Cl)cc2)c2ccccc2n1 [Example 8, N^2-Benzyl-N^4-(4-chlorobenzyl)-N^2-(cyanoethyl)quinazoline-2,4-diamine] | 300

test system: not given; assay: not given; conditions: not given

SMILES | melting point [°C]
Clc1ccc(CNc2nc(NCc3ccc(Cl)cc3)c3ccccc3n2)cc1 (as salt: HCl) [Example 1, N^2,N^4-Bis(4-chlorobenzyl)quinazoline-2,4-diamine] | 263 to 264
Fc1ccc(CNc2nc(NCc3ccc(F)c(F)c3)c3ccccc3n2)cc1F (as salt: HCl) [Example 2, N^2,N^4-Bis(3,4-difluorobenzyl)quinazoline-2,4-diamine] | 275 to 276
Clc1ccc(CNc2nc(NC3CCCc4ccccc43)c3ccccc3n2)cc1 (centres unmarked) (as salt: HCl) [Example 11, N^2-(4-Chlorobenzyl)-N^4-(1,2,3,4-tetrahydronaphthalen-1-yl)quinazoline-2,4-diamine] | 166 to 167
NCc1cccc(CNc2nc(NCc3ccc(F)c(F)c3)c3ccccc3n2)c1 [Example 3, N^2-(3-Aminomethylbenzyl)-N^4-(3,4-difluorobenzyl)quinazoline-2,4-diamine] | 148 to 149
CN(C)c1ccc(CNc2nc(NCc3ccc(F)c(F)c3)nc3ccccc23)cc1 [Example 5, N^2-(3,4-Difluorobenzyl)-N^4-(4-dimethylaminobenzyl)quinazoline-2,4-diamine] | 59 to 60
Clc1ccc(CNc2nc(N3CCCCC3c3ccccc3)nc3ccccc23)cc1 (centres unmarked) [Example 6, (4-Chlorobenzyl)-[2-(2-phenylpiperidin-1-yl)quinazolin-4-yl]amine] | 86 to 87
OCCN(Cc1ccccc1)c1nc(NCc2ccc(Cl)cc2)c2ccccc2n1 [Example 7, N^2-Benzyl-N^4-(4-chlorobenzyl)-N^2-(hydroxyethyl)quinazoline-2,4-diamine] | 188 to 190.5
